In patent US9434711B2 (Janssen Pharmaceutica, NV, priority 2007, dated 2016):
Where two headings read alike, the source gives them in different places.

Target: canine TRPM8 (Canis lupus familiaris, UniProt Q1A7N1)
Test: In Vitro Canine TRPM8 Functional Assay (Ca2+ fluorescence, icilin activation)
Format: cell-based
Details: for IC50: read-out: IC50; for inhibition at 0.2 µM: read-out: % Inh @ 0.2; for inhibition at 0.5 µM: compound at 0.5 μM, read-out: % Inh @ 0.5
Method in brief: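 Readout is the intracellular Ca2+ fluorescence change, measured by FLIPR or FDSS, in HEK293 cells stably expressing canine TRPM8. Potency (EC50 or IC50) is fitted from eight concentrations averaged over quadruplicate wells.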

[1] = HEK293 cells stably expressing canine TRPM8, icilin activation, eight-point dose-response
[2] = compound at 0.2 μM, canine TRPM8, icilin activation
[3] = 0.2 μM compound, HEK293 cells stably expressing canine TRPM8, icilin activation
[4] = HEK293 cells stably expressing canine TRPM8, icilin activation, average of two or more determinations
[5] = canine TRPM8, icilin activation

canine TRPM8, sequence (Q1A7N1 1-1104): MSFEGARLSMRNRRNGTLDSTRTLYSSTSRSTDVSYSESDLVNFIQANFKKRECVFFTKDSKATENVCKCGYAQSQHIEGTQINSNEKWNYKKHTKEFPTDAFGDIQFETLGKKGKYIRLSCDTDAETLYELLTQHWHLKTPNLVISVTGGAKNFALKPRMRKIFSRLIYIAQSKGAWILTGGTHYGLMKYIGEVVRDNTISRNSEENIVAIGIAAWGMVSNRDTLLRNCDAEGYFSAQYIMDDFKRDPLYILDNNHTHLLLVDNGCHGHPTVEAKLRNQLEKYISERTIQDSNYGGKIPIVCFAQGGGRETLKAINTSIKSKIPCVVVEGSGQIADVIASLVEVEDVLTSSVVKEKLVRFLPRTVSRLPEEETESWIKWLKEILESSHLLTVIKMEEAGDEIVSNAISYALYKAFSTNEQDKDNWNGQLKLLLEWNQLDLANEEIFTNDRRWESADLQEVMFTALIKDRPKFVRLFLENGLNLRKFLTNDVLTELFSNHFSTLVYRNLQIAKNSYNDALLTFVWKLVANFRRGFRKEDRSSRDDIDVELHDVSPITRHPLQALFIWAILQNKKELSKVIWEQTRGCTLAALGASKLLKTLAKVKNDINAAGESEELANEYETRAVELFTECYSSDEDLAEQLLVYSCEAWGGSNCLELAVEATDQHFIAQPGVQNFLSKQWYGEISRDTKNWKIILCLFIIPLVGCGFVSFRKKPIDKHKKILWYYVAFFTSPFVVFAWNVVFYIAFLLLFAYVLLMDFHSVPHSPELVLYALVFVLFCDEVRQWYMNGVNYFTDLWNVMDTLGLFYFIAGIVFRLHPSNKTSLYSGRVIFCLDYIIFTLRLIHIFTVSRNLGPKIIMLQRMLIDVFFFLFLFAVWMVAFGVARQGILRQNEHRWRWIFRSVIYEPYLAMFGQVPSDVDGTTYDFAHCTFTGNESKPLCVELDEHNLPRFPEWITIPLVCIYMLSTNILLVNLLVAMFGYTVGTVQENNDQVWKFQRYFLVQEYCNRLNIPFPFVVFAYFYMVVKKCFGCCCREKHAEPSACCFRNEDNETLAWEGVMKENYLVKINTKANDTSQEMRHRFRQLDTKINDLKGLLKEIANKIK

Row | Compound | IC50 [1] | inhibition at 0.2 µM [2] | also measured
1 | O=S(=O)(c1ccccc1)N(CCCF)c1cc2ccccc2s1 [Compound 817, N-(Benzo[b]thiophen-2-yl)-N-(3-fluoro-propyl)-benzenesulfonamide] |  |  | inhibition at 0.2 µM [3]: 80%; IC50 [4]: 73 nM
2 | O=C1CCCN1CCN(c1sc2ccccc2c1Br)S(=O)(=O)c1ccccc1 [Compound 236, N-(3-Bromo-benzo[b]thiophen-2-yl)-N-[2-(2-oxo-pyrrolidin-1-yl)-ethyl]-benzenesulfonamide] |  |  | inhibition at 0.5 µM [5]: 68%
3 | Cc1c(N(CCOC(C)(C)C)S(C)(=O)=O)sc2ccccc12 [Compound 366, N-(2-tert-Butoxy-ethyl)-N-(3-methyl-benzo[b]thiophen-2-yl)-methanesulfonamide] | 40 nM | 85% | 
4 | O=c1[nH]c(-c2ccc(S(=O)(=O)N(CCC3CC3)c3cc4ccccc4s3)cc2)ns1 [Compound 642, N-(Benzo[b]thiophen-2-yl)-N-(cyclopropyl-ethyl)-4-(5-oxo-4,5-dihydro-[1,2,4]thiadiazol-3-yl)-benzenesulfonamide] | 41 nM | 90% | 
5 | CCCCN(c1sc2ccccc2c1Br)S(=O)(=O)c1ccc(C2=NOS(=O)N2)cc1 (centres unmarked) [Compound 484, N-(3-Bromo-benzo[b]thiophen-2-yl)-N-(butyl)-4-(3H-[1,2,3,5]oxathiadiazole-2-oxide)-benzenesulfonamide] | 21 nM |  | % Inh @ 0.2 (μM) [2]: 100%
6 | COC(=O)c1cccc(S(=O)(=O)N(Cc2ccc(F)c(C(F)(F)F)c2)c2sc3ccccc3c2Br)c1 [Compound 193, N-(3-Bromo-benzo[b]thiophen-2-yl)-N-(4-fluoro-3-trifluoromethyl-benzyl)-3-carbomethoxy-benzenesulfonamide] | 14.5 nM | 101% | 
7 | CN(C)c1ccc(S(=O)(=O)N(CCC2CC2)c2cc3ccccc3s2)cc1 [Compound 689, N-(Benzo[b]thiophen-2-yl)-N-(2-cyclopropyl-ethyl)-4-dimethylamino-benzenesulfonamide] | 52.8 nM | 86% | 
8 | CCCCN(c1sc2ccccc2c1C)S(=O)(=O)c1cccnc1N(C)C [Compound 448, N-(3-Methyl-benzo[b]thiophen-2-yl)-N-(butyl)-2-dimethylamino-pyridin-3-yl-sulfonamide] | 12 nM | 102% | 
9 | CSCCN(c1cc2ccccc2s1)S(=O)(=O)c1ccccc1 [Compound 120, N-(Benzo[b]thiophen-2-yl)-N-(2-methylsulfanyl-ethyl)-benzenesulfonamide] | 156 nM | 75% | 
10 | Cc1c(N(Cc2ccc(F)c(F)c2)S(C)(=O)=O)sc2ccccc12 [Compound 367, N-(3,4-Difluoro-benzyl)-N-(3-methyl-benzo[b]thiophen-2-yl)-methanesulfonamide] | 10 nM | 91% | 
11 | CS(=O)(=O)Nc1ccc(S(=O)(=O)N(CCC(F)(F)F)c2cc3ccccc3s2)cc1 [Compound 507, N-(Benzo[b]thiophen-2-yl)-4-methanesulfonylamino-N-(3,3,3-trifluoro-propyl)-benzenesulfonamide] | 34 nM | 92% | 
12 | O=S(=O)(Nc1ccc(S(=O)(=O)N(CCC2CC2)c2sc3ccccc3c2Br)cc1)C1CC1 [Compound 719, N-(3-Bromo-benzo[b]thiophen-2-yl)-4-cyclopropanesulfonylamino-N-(2-cyclopropyl-ethyl)-benzenesulfonamide] | 23 nM | 100% | 
13 | Cc1c(N(Cc2ccc(F)cc2)S(=O)(=O)c2ccc(OCc3ccc(F)cc3)c(F)c2)sc2ccccc12 [Compound 845, 3-Fluoro-N-(4-fluoro-benzyl)-4-(4-fluoro-benzyloxy)-N-(3-methyl-benzo[b]thiophen-2-yl)-benzenesulfonamide] |  |  | inhibition at 0.2 µM [3]: 24%
14 | Cc1c(N(CCC2CC2)S(=O)(=O)c2cnccc2-c2nnn[nH]2)sc2ccccc12 [Compound 804, N-(3-Methyl-benzo[b]thiophen-2-yl)-N-(cyclopropyl-ethyl)-4-(1H-tetrazol-5-yl)-pyridin-3-ylsulfonamide] |  |  | IC50 [4]: 11.1 nM

More lines, main results first:

Row | IC50 [1] | inhibition at 0.2 µM [2] | Compound | also measured
15 | 145 nM | 73.1% | O=c1[nH]c(-c2ccc(S(=O)(=O)N(CCC(F)(F)F)c3cc4ccccc4s3)cc2)ns1 [Compound 684, N-(Benzo[b]thiophen-2-yl)-N-(3,3,3-trifluoro-propyl)-4-(5-oxo-4,5-dihydro-[1,2,4]thiadiazol-3-yl)-benzenesulfonamide] | 
16 | 7 nM |  | Cc1c(N(Cc2ccc(F)c(F)c2)S(=O)(=O)N(C)C)sc2ccccc12 [Compound 44, N-(3,4-Difluoro-benzyl)-N-(3-methyl-benzo[b]thiophen-2-yl)-N′,N′-dimethylsulfamide] | inhibition at 0.5 µM [5]: 98%
17 | 22 nM | 97% | Cc1c(N(Cc2ccc(F)c(C(F)(F)F)c2)S(=O)(=O)c2cccnc2Cl)sc2ccccc12 [Compound 77, N-(4-Fluoro-3-trifluoromethyl-benzyl)-N-(3-methyl-benzo[b]thiophen-2-yl)-2-chloro-pyridine-3-sulfonamide] | 
18 |  | 100% | Cc1c(N(Cc2ccccc2)S(=O)(=O)c2ccc(C(=O)O)cc2)sc2ccccc12 [Compound 486, N-(3-Methyl-benzo[b]thiophen-2-yl)-N-(benzyl)-4-carboxy-benzenesulfonamide] | 
19 | 21 nM | 101% | O=c1[nH]c(-c2ccc(S(=O)(=O)N(CCCC(F)(F)F)c3cc4ccccc4s3)cc2)no1 [Compound 513, N-(Benzo[b]thiophen-2-yl)-N-(4,4,4-trifluoro-butyl)-4-(5-oxo-4,5-dihydro-[1,2,4]oxadiazol-3-yl)-benzenesulfonamide] | 
20 | 6 nM | 97% | Cc1c(N(CCN2CCOCC2)S(=O)(=O)c2ccccc2)sc2ccccc12 [Compound 95, N-(3-Methyl-benzo[b]thiophen-2-yl)-N-(2-morpholin-4-yl-ethyl)-benzenesulfonamide] | 
21 | 32 nM | 100% | CC(=O)Nc1c(N(Cc2ccc(F)c(C(F)(F)F)c2)S(=O)(=O)c2ccccc2)sc2ccccc12 [Compound 509, N-{2-[Benzenesulfonyl-(4-fluoro-3-trifluoromethyl-benzyl)-amino]-benzo[b]thiophen-3-yl}-acetamide] | 
22 |  | 38% | Cc1c(N(CCC2CC2)S(=O)(=O)c2ccc(C(=O)N[C@@H]3CCNC3)cc2)sc2ccccc12 [Compound 783, (R)-4-[(2-Cyclopropyl-ethyl)-(3-methyl-benzo[b]thiophen-2-yl)-sulfamoyl]-N-pyrrolidin-3-yl-benzamide] | 
23 | 39.8 nM | 101% | CC1=C(N(CCC(F)(F)F)S(=O)(=O)c2ccccc2)S(=O)(=O)c2ccccc21 [Compound 619, N-(3-Methyl-1,1-dioxo-benzo[b]thiophen-2-yl)-N-(3,3,3-trifluoro-propyl)-benzenesulfonamide] | 
24 | 33 nM |  | Cc1c(N(Cc2ccc(OC(F)(F)F)cc2)S(=O)(=O)c2cn(C)cn2)sc2ccccc12 [Compound 11, N-(3-Methyl-benzo[b]thiophen-2-yl)-N-(4-trifluoromethoxy-benzyl)-1-methyl-1H-imidazole-4-sulfonamide] | inhibition at 0.5 µM [5]: 97%
25 | 25.9 nM |  | Cc1c(N(CCCCC(F)(F)F)S(=O)(=O)c2cnccc2N2CCOCC2)sc2ccccc12 [Compound 788, N-(3-Methyl-benzo[b]thiophen-2-yl)-N-(5,5,5-trifluoro-pentyl)-4-morpholino-3-pyridyl-sulfonamide] | 
